According to paper PMC3995681, “Structural, Kinetic and Proteomic Characterization of Acetyl Phosphate-Dependent Bacterial Protein Acetylation” (PLoS ONE, 2014):

How the values were obtained:
[1] = target: T1, GapA (glyceraldehyde-3-phosphate dehydrogenase) (Escherichia coli, UniProt P0A9B2); assay: X-ray crystallography; details: NAD+-binding site, part of the molecules in the asymmetric unit
T1 construct: full ORF, N-terminal His6 tag plus TDPALRA spacer (ASKA clone, pCA24N), expressed in E. coli BL21(DE3); tetramer
T1 sequence (P0A9B2 whole entry): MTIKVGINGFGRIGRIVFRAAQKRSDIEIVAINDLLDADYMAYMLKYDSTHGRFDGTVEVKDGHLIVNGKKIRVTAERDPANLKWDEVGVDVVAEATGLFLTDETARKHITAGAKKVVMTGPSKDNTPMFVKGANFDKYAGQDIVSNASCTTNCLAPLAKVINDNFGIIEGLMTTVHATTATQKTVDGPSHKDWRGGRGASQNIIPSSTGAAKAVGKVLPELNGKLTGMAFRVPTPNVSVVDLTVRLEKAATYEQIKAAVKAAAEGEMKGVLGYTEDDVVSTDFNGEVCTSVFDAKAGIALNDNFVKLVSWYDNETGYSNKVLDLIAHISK

[2] = target: T1, GapA (glyceraldehyde-3-phosphate dehydrogenase); assay: X-ray crystallography, crystal soak ( […] sec); type: binding; details: covalent; acetylation of K46, K249, K257, K116; pH 7.5
[3] = target: T2, TpiA (triosephosphate isomerase) (Escherichia coli, UniProt P0A858); assay: X-ray crystallography, crystal soak ( […] sec); type: binding; details: pH 6.5; active site near K11; non-covalent (K11 not acetylated)
T2 construct: full ORF, N-terminal His6 tag plus TDPALRA spacer (ASKA clone, pCA24N), expressed in E. coli BL21(DE3)
T2 sequence (P0A858 whole entry): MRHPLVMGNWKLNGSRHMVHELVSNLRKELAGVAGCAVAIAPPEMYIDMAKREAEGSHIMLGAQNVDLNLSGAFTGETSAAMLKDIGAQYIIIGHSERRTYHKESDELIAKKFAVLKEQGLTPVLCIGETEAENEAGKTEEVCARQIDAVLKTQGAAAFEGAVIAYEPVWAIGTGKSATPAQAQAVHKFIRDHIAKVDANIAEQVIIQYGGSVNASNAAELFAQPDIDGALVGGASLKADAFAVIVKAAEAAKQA

[4] = target: T3, RNAP sigma70 holoenzyme (Escherichia coli, UniProt P00579+P0A7Z4+P0A8V2); assay: in vitro acetylation, anti-acetyllysine Western blot and MS1 Filtering; type: biochemical; details: covalent; acetylation of RpoA K297, RpoB K1065, RpoD K493 and K593; 10 mM acP, 30 min, 10 mM MgCl2
T3 construct: gene rpoA; with DNA-directed RNA polymerase subunit beta'; DNA-directed RNA polymerase subunit omega
T3 sequence (P0A7Z4 whole entry): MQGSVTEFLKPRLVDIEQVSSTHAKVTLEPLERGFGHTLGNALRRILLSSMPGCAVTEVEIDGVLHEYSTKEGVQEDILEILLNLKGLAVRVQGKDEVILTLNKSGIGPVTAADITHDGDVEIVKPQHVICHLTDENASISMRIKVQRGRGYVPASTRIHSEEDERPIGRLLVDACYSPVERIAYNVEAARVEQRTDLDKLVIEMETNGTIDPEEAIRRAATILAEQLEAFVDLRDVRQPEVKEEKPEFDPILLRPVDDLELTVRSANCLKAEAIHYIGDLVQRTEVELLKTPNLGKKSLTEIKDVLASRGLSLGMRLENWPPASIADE
T3 sequence (P0A8V2 whole entry): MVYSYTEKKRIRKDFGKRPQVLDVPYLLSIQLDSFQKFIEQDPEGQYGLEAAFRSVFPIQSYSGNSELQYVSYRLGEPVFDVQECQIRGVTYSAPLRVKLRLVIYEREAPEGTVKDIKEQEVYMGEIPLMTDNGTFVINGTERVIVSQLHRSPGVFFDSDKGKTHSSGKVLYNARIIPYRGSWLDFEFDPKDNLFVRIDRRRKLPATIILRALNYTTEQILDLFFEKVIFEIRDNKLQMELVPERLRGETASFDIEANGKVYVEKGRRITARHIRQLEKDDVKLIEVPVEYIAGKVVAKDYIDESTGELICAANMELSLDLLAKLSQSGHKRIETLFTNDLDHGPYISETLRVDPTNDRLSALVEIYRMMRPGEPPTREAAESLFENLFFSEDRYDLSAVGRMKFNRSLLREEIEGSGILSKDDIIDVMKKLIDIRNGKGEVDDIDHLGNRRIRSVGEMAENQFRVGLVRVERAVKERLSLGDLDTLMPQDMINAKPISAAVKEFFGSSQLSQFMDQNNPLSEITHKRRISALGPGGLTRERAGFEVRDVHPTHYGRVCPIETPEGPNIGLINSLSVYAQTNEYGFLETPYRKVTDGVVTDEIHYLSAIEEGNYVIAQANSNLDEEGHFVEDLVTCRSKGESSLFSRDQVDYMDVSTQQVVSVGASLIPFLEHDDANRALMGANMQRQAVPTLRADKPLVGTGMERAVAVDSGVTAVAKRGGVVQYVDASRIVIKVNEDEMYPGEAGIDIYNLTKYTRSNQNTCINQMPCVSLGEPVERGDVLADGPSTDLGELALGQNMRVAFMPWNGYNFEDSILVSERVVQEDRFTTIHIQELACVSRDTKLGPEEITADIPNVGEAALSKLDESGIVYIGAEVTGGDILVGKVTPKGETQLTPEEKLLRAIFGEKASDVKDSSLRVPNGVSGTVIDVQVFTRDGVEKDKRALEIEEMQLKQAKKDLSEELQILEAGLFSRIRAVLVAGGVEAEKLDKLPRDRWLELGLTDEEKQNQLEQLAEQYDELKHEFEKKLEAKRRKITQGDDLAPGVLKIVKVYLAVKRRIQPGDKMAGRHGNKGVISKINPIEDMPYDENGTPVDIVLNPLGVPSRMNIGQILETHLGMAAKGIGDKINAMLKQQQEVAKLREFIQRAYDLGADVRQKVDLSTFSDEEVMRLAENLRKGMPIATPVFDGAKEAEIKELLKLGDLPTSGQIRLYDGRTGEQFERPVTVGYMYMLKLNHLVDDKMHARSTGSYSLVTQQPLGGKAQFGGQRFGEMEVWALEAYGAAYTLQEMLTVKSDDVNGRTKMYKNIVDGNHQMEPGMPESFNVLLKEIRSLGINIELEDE
T3 sequence (P00579 whole entry): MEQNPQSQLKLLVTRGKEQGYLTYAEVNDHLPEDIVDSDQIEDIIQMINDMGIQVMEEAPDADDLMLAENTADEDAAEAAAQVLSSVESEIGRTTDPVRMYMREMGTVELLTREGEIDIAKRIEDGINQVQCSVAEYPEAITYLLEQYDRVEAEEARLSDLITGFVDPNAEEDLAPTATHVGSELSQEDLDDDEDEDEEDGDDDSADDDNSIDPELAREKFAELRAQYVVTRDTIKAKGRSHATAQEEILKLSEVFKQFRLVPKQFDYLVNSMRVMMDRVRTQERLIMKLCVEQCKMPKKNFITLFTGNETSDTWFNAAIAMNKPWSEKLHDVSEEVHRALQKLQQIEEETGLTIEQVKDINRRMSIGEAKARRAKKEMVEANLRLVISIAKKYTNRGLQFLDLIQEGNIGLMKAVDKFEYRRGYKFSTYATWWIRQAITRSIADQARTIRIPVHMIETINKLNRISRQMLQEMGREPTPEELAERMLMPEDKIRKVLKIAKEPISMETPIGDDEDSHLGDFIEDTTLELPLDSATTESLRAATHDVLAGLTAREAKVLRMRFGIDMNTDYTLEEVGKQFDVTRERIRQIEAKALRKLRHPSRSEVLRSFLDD
T3 sequence (P0A8T7 whole entry partner): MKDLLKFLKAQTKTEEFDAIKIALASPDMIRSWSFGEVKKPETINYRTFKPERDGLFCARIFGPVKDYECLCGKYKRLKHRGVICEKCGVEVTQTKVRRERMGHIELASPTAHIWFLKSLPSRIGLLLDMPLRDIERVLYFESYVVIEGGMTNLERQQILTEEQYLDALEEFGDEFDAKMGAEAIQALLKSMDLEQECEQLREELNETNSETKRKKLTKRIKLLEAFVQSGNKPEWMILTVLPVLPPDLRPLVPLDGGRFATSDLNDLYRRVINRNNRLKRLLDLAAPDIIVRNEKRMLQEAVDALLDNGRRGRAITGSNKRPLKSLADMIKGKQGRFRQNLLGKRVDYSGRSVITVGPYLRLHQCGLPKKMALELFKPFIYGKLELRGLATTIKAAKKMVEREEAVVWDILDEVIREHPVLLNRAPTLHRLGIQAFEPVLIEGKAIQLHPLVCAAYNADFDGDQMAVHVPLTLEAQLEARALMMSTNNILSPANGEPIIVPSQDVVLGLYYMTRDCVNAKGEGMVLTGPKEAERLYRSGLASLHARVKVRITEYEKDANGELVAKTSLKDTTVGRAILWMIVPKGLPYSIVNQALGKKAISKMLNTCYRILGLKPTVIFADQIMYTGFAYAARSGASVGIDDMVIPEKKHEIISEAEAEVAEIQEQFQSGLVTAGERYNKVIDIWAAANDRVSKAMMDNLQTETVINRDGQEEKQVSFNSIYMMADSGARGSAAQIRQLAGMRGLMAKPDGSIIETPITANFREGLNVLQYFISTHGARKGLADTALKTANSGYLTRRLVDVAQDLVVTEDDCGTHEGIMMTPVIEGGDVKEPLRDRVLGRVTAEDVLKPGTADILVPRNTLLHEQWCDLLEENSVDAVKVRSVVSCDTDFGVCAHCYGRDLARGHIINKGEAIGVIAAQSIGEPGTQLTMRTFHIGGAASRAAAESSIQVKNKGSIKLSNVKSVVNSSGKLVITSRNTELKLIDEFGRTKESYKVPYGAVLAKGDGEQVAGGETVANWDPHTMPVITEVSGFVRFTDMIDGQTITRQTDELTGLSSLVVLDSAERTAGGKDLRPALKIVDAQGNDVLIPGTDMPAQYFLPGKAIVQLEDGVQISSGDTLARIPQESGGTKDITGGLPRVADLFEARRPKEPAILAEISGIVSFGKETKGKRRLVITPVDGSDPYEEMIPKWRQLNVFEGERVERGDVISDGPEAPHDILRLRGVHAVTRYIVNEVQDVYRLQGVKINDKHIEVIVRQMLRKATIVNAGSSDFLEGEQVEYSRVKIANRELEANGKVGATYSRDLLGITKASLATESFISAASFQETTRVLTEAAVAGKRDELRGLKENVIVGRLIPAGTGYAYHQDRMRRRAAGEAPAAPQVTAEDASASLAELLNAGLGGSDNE
T3 sequence (P0A800 2-91 partner): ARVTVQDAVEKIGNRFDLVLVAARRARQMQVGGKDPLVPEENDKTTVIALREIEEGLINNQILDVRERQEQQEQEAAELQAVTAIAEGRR

[5] = target: T4, LpdA (dihydrolipoyl dehydrogenase) (Escherichia coli, UniProt P0A9P0); assay: as above; type: biochemical; details: covalent; non-enzymatic lysine acetylation, non-saturating; 5-20 mM acP, 10 mM MgCl2, pH 7.3, 37°C
T4 construct: full ORF, N-terminal His6 tag plus TDPALRA spacer (ASKA clone, pCA24N), expressed in E. coli BL21(DE3)
T4 sequence (P0A9P0 whole entry): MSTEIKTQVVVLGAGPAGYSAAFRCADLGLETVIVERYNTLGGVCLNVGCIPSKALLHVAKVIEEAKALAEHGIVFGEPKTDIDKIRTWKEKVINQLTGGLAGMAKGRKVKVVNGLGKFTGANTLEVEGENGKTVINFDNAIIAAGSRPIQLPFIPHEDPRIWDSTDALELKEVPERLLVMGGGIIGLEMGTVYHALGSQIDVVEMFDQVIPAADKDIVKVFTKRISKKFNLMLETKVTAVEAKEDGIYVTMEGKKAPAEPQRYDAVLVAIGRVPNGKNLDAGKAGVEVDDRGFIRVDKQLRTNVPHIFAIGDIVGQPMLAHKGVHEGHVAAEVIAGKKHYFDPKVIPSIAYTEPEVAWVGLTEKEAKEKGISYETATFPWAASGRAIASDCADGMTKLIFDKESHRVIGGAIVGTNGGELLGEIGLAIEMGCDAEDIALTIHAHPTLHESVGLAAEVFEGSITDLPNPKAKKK

NC(=O)c1ccc[n+]([C@@H]2O[C@H](COP(=O)(O)OP(=O)(O)OC[C@H]3O[C@@H](n4cnc5c(N)ncnc54)[C@H](O)[C@@H]3O)[C@@H](O)[C@H]2O)c1 [NAD^+]
X-ray crystallography [1]: had either NAD^+ or pyrophosphate bound in the NAD^+-binding site

CC(=O)OP(=O)(O)O [acP]
X-ray crystallography, crystal soak (<30 sec) [2]: acP-dependent acetylation had already occurred on four residues (i.e., K46, K249, K257, and K116) | X-ray crystallography, crystal soak (<30 sec) [3]: The structures showed that acP bound near K11, where the substrate DHAP is seen to bind | in vitro acetylation, anti-acetyllysine Western blot and MS1 Filtering [4]: significant relative increases in acetylation were observed for K297 of RpoA, for K1065 of RpoB | in vitro acetylation, anti-acetyllysine Western blot and MS1 Filtering [5]: when incubated with acP, purified LpdA became acetylated in a dose- and time-dependent manner

O=P(O)(O)OP(=O)(O)O [pyrophosphate]
X-ray crystallography ([1]; source of ligand not told): had either NAD^+ or pyrophosphate bound in the NAD^+-binding site
